Assay results reported in patent publication US11371055B2, “Herbicide resistance genes” (CORTEVA AGRISCIENCE LLC, priority 2005, dated 2022).
Where “and” joins values, the source holds several entries; their conditions need not be identical. Equal entries are not always repeated.

What was measured:
[1] = test system: Untransformed Control corn; experiment: Herbicide tolerance of untransformed control corn in the F1 stack test; format: in vivo, Zea mays; conditions: 1120 g ae/ha 2,4-D DMA
Source text: AAD-12 (v1) (pDAB4101) and elite Roundup Ready inbred (BE1146RR) were reciprocally crossed and F1 seed was collected. The seed from two F1 lines were planted and treated with 70 g ae/ha imazethapyr at the V2 stage to eliminate nulls. To the surviving plants, reps were separated and either treated with 1120 g ae/ha 2,4-D DMA+70 g ae/ha imazethapyr (to confirm presence of AHAS gene) or 1120 g ae/ha 2,4-D DMA+1680 g ae/ha glyphosate (to confirm the presence of the Round Up Ready gene) in a track sprayer calibrated to 187 L/ha. Plants were graded 3 and 16 DAT.

[2] = test system: T4 Arabidopsis seed homozygous for AAD-12 (v1) spiked into wildtype (sensitive) seed; experiment: AAD-12 (v1) as selectable marker with 2,4-D as selection agent; format: in vivo, Arabidopsis thaliana; conditions: applied 7 and 11 days after planting (DAP); Resistant or Sensitive identified 17 DAP
Procedure: The ability to use AAD-12 (v1) as a selectable marker using 2,4-D as the selection agent was analyzed initially with Arabidopsis transformed as described above. Approximately 50 T4 generation Arabidopsis seed (homozygous for AAD-12 (v1)) were spiked into approximately 5,000 wildtype (sensitive) seed. Several treatments were compared, each tray of plants receiving either one or two application timings of 2,4-D in one of the following treatment schemes: 7 DAP, 11 DAP, or 7 followed by 11 DAP. Since all individuals also contained the PAT gene in the same transformation vector, AAD-12 selected with 2,4-D could be directly compared to PAT selected with glufosinate.
Treatments were applied with a DeVilbiss spray tip as previously described. Plants were identified as Resistant or Sensitive 17 DAP.

[3] = test system: AAD-2 (v1) transformed T1 Arabidopsis; experiment: 2,4-D dose response of AAD-2 (v1) transformed T1 Arabidopsis; format: in vivo, Arabidopsis thaliana; conditions: 200 g ae/ha 2,4-D
Procedure: Freshly harvested T1 seed transformed with a plant optimized AAD-12 (v1) or native AAD-2 (v1) gene were planted and selected for resistance to glufosinate as previously described Plants were then randomly assigned to various rates of 2,4-D (50-3200 g ae/ha). Herbicide applications were applied by track sprayer in a 187 L/ha spray volume. 2,4-D used was the commercial dimethylamine salt formulation (456 g ae/L, NuFarm, St Joseph, Mo.) mixed in 200 mM Tris buffer (pH 9.0) or 200 mM HEPES buffer (pH7.5).

T1 AAD-1 (v3) tobacco = experiment: Elevated 2,4-D DMA rates in greenhouse tobacco, AAD-1; format: in vivo, Nicotiana tabacum
Source text: T1 AAD-12 (v1) plants from an event segregating 3R:1S when selected with 560 g ai/ha Liberty using the same protocol as previously described. T1 AAD-1 (v3) seed was also planted for transformed tobacco controls (see PCT/US2005/014737). Untransformed KY160 was served as the sensitive control. Plants were sprayed using a track sprayer set to 187 L/ha at 140, 560, 2240, 8960, and 35840 g ae/ha 2,4-D DMA and rated 3 and 14 DAT.

[4] = test system: wildtype Maverick soybeans; experiment: 2,4-D spray application on wildtype soybean; format: in vivo, Glycine max
Source text: Plants that are transferred to the greenhouse can be assayed for the presence of an active PAT gene further with a non-destructive manner by painting a section of leaf of the T0 primary transformant, or progeny thereof, with a glufosinate solution [0.05-2% v/v Liberty Herbicide, preferably 0.25-1.0% (v/v),=500-2000 ppm glufosinate, Bayer Crop Science]. Depending on the concentration used, assessment for glufosinate injury can be made 1-7 days after treatment. Plants can also be tested for 2,4-D tolerance in a non-destructive manner by selective application of a 2,4-D solution in water (0.25-1% v/v commercial 2,4-D dimethylamine salt formulation, preferably 0.5% v/v=2280 ppm 2,4-D ae) to the terminal leaflet of the newly expanding trifoliolate one or two, preferably two, nodes below the youngest emerging trifolioate. This assay allows assessment of 2,4-D sensitive plants 6 hours to several days after application by assessment of leaf flipping or rotation >90 degrees from the plane of the adjacent leaflets. Plants tolerant to 2,4-D will not respond to 2,4-D. To plants will be allowed to self fertilize in the greenhouse to give rise to T1 seed. T1 plants (and to the extent enough T0 plant clones are produced) will be sprayed with a range of herbicide doses to determine the level of herbicide protection afforded by AAD-12 (v1) and PAT genes in transgenic soybean. Rates of 2,4-D used on T0 plants will typically comprise one or two selective rates in the range of 100-1120 g ae/ha using a track sprayer as previously described. T1 plants will be treated with a wider herbicide dose ranging from 50-3200 g ae/ha 2,4-D. Likewise, T0 and T1 plants can be screened for glufosinate resistance by postemergence treatment with 200-800 and 50-3200 g ae/ha glufosinate, respectively. Glyphosate resistance (in plants transformed with constructs that contain EPSPS) or another glyphosate tolerance gene can be assessed in the T1 generation by postemergence applications of glyphosate with a dose range from 280-2240 g ae/ha glyphosate. Analysis of protein expression will occur as described in below. Individual T0 plants were assessed for the presence of the coding region of the gene of interest (AAD-12 (v1) or PAT v6) and copy number. Determination of the inheritance of AAD-12 (v1) will be made using T1 and T2 progeny segregation with respect to herbicide tolerance as described in previous examples.
The screened plants were then sampled for molecular and biochemical analyses for the confirmation of the AAD12 (v1) genes integration, copy number, and their gene expression levels as described below and reported in Table 25.

[5] = test system: PAT-only transformed soybean plants; experiment: 2,4-D leaf paint (leaf flip assay) on PAT-only transformed soybean; format: in vivo, Glycine max; set-up: key: 1 = Flip; 0 = No Flip; conditions: event D-2-3 (pDAB4499, PAT, CsVMV)
Source text: Plants that are transferred to the greenhouse can be assayed for the presence of an active PAT gene further with a non-destructive manner by painting a section of leaf of the T0 primary transformant, or progeny thereof, with a glufosinate solution [0.05-2% v/v Liberty Herbicide, preferably 0.25-1.0% (v/v),=500-2000 ppm glufosinate, Bayer Crop Science]. Depending on the concentration used, assessment for glufosinate injury can be made 1-7 days after treatment. Plants can also be tested for 2,4-D tolerance in a non-destructive manner by selective application of a 2,4-D solution in water (0.25-1% v/v commercial 2,4-D dimethylamine salt formulation, preferably 0.5% v/v=2280 ppm 2,4-D ae) to the terminal leaflet of the newly expanding trifoliolate one or two, preferably two, nodes below the youngest emerging trifolioate. […] Glyphosate resistance (in plants transformed with constructs that contain EPSPS) or another glyphosate tolerance gene can be assessed in the T1 generation by postemergence applications of glyphosate with a dose range from 280-2240 g ae/ha glyphosate. […] Individual T0 plants were assessed for the presence of the coding region of the gene of interest (AAD-12 (v1) or PAT v6) and copy number. […]
A subset of the initial transformants were assessed in the T0 generation according to the methods above. […]

[6] = Maverick WT individual plants (WT-5, WT-6, WT-7), spray 560 g ae/ha 2,4-D
[7] = Maverick WT individual plants (WT-10, WT-8, WT-9), spray 1120 g ae/ha 2,4-D

SMILES	Average % Injury 16DAT [1]	optimum treatment for selection of transformed plants [2]	overall population injury [3]	Average % injury 14 DAT (T1 AAD-1 (v3) tobacco; 2240 g ae/ha 2,4-D)	Average % injury 14 DAT (T1 AAD-1 (v3) tobacco; 8960 g ae/ha 2,4-D)	Average % injury 14 DAT (T1 AAD-1 (v3) tobacco; 35840 g ae/ha 2,4-D)	response to herbicide spray application ([4]; 560 g ae/ha 2,4-D, 7-14 DAT)	response to herbicide spray application ([4]; 1120 g ae/ha 2,4-D)	% injury 2 DAT [4, 6]	% injury 7 DAT [4, 6]	% injury 14 DAT [4, 6]	% injury 2 DAT [4, 7]	% injury 7 DAT [4, 7]	% injury 14 DAT [4, 7]	Leaf flip assay (18 HAT) Node N-2 [5]
CNC.O=C(O)COc1ccc(Cl)cc1Cl [2,4-D DMA]	21%	–	–	–	–	–	–	–	–	–	–	–	–	–	–
O=C(O)COc1ccc(Cl)cc1Cl [2,4-D, 2,4-dichlorophenoxyacetic acid]	–	75 g ae/ha	about 83%	4%	9%	32%	severely injured	killed	50% and 70% (2×)	60% and 90% and 80%	60% and 80% (2×)	70%	90% and 95% (2×)	100%	1
